Measured values reported in US9403874B2, “Peptides and use thereof” (IL YANG PHARM. CO.,LTD., priority 2012, dated 2016).

How the values were obtained:
Assay type in all cases: cell-based
Settings in all cases: 100 ng/me of peptide; EBV-infected B cells stimulated with anti-CD150; ELISA of culture supernatant
[1] = test system: IL-2; test: Reduction of IL-2 secretion in activated B cells (ELISA)
Description: (§1) In order to determine the activity of the novel peptides synthesized in Example 1 for reducing the secretion of inflammatory cytokines, the activated pathogenic B cells were treated with each of the 18 types of synthesized novel peptides and the reduction in secretion of inflammatory cytokines from the B cells was monitored.
(§2) Specifically, in order to determine whether the novel peptides could weaken the pathogenic B cells which are involved in the development of disease symptoms, the in vitro B cells model which is similar to the joint infiltrative B cells of rheumatoid arthritis was used. The activated pathogenic B cell was generated by stimulating Ebstein Barr virus (EBV)-infected B cells with anti-CD150 antibodies, and the cells were treated with […] of each of the 18 types of novel peptide.
(§3) In order to confirm the effect of 18 types of novel peptides in reducing inflammatory cytokines, the secretion amount of various cytokines (IL-1A, IL-1B, IL-2, IL-4, IL-5, IL-6, IL-8, IL-10, IL-12A, IL-13, IL-17A, GM-CSF, IL-34) secreted from the activated B cells was measured. The supernatants of B cell culture were analyzed enzyme-linked immunosorbent assay (ELISA), and the difference in absorbance (450 nm-570 nm) of the color developing reagent was measured as test results. Based on the measured difference in absorbance (450 nm-570 nm) of the color developing reagent, the absorbance of cytokines secreted when treated with the 18 types of novel […] was calculated in percentage, while setting the absorbance corresponding to the cytokines secreted from the activated B cells stimulated by anti-CD150 as 100%.

[2] = test system: IL-6; test: Reduction of IL-6 secretion in activated B cells (ELISA)
Description: as §1, §2, §3

[3] = test system: IL-13; test: Reduction of IL-13 secretion in activated B cells (ELISA)
Description: as §1, §2, §3

[4] = test system: GM-CSF; test: Reduction of GM-CSF secretion in activated B cells (ELISA)
Description: as §1, §2, §3

[5] = test system: IL-12A; test: Reduction of IL-12A secretion in activated B cells (ELISA)
Description: as §1, §2, §3

[6] = test system: IL-1A; test: Reduction of IL-1A secretion in activated B cells (ELISA)
Description: as §1, §2, §3

[7] = test system: IL-1B; test: Reduction of IL-1B secretion in activated B cells (ELISA)
Description: as §1, §2, §3

[8] = test system: IL-5; test: Reduction of IL-5 secretion in activated B cells (ELISA)
Description: as §1, §2, §3

[9] = test system: IL-17A; test: Reduction of IL-17A secretion in activated B cells (ELISA)
Description: as §1, §2, §3

[10] = test system: IL-4; test: Reduction of IL-4 secretion in activated B cells (ELISA)
Description: as §1, §2, §3

[11] = test system: IL-34; test: Reduction of IL-34 secretion in activated B cells (ELISA)
Description: as §1, §2, §3

[12] = test system: IL-10; test: Reduction of IL-10 secretion in activated B cells (ELISA)
Description: as §1, §2, §3

[13] = test system: IL-8; test: Reduction of IL-8 secretion in activated B cells (ELISA)
Description: as §1, §2, §3

| Substance | Inhibition rate of each cytokine compared to CD150-stimulated EBV-t B cells (%) IL-2 [1] [%] | Inhibition rate of each cytokine compared to CD150-stimulated EBV-t B cells (%) IL-6 [2] [%] | Inhibition rate of each cytokine compared to CD150-stimulated EBV-t B cells (%) IL-13 [3] [%] | Inhibition rate of each cytokine compared to CD150-stimulated EBV-t B cells (%) GM-CSF [4] [%] | Inhibition rate of each cytokine compared to CD150-stimulated EBV-t B cells (%) IL-12A [5] [%] | Inhibition rate of each cytokine compared to CD150-stimulated EBV-t B cells (%) IL-1A [6] [%] | Inhibition rate of each cytokine compared to CD150-stimulated EBV-t B cells (%) IL-1B [7] [%] | Inhibition rate of each cytokine compared to CD150-stimulated EBV-t B cells (%) IL-5 [8] [%] | Inhibition rate of each cytokine compared to CD150-stimulated EBV-t B cells (%) IL-17A [9] [%] | Inhibition rate of each cytokine compared to CD150-stimulated EBV-t B cells (%) IL-4 [10] [%] | Inhibition rate of each cytokine compared to CD150-stimulated EBV-t B cells (%) IL-34 [11] [%] | Inhibition rate of each cytokine compared to CD150-stimulated EBV-t B cells (%) IL-10 [12] [%] | Inhibition rate of each cytokine compared to CD150-stimulated EBV-t B cells (%) IL-8 [13] [%] |
| --- | --- | --- | --- | --- | --- | --- | --- | --- | --- | --- | --- | --- | --- |
| PSPRDG (SIS-1#5 peptide) | 6.8 | 18.7 | 15.2 | 7.5 | 8.9 | 8.3 | 14.2 | 9.8 | 12.8 | 13.2 | 13.2 | 7.2 | 10.5 |
| PSPRDGRTDG (SIS-1#6 peptide) | 23.1 | 33.9 | 29.4 | 21.2 | 30.8 | 12.0 | 15.2 | 15.6 | 42.2 | 20.5 | 31.0 | 4.5 | 28.0 |
| RDG (SIS-1#14 peptide) | 10.2 | 1.5 | 4.4 | 0.3 | 2.9 | 7.2 | 5.3 | 11.0 | 7.7 | 3.0 | 4.2 | 10.4 | 5.7 |
| RDGR (SIS-1#15 peptide) | 12.7 | 4.8 | 7.2 | 1.5 | 10.8 | 11.5 | 5.7 | 6.4 | 10.1 | 6.3 | 6.0 | 7.2 | 15.0 |
